Where “and” joins values, the source holds several entries; their conditions need not be identical. Identical values can stand only once.
What was measured:
A2780 cells = experiment: SRB proliferation assay for non-light-sensitive complexes, A2780; format: cell-based, human; conditions: ambient light, 24 h exposure, 72 h recovery
Experimental: (§1) Cytotoxicity of platinum(II) precursors: To investigate the relationship between the Pt^IV diazidodihydroxido complexes and their Pt^II dichlorido analogues trans-[PtCl2(Am1)(Am2)] (where Am=amine), the cytotoxicities of complexes trans-[PtCl2(MA)(Py)] (5) and trans-[PtCl2(MA)(Tz)] (6) towards A2780 and its cisplatin resistant sub-line A2780cis were determined. The toxicity was not photoinduced, as the complexes are not photoactive. Complexes 5 and 6 are highly cytotoxic towards A2780 and A2780cis cells compared to the reported trans-Pt^II compounds.[18]–[22] Complex 5 is about three-times more cytotoxic than complex 6 towards A2780 cells. […]
(§2) Cell Culture and Proliferation Assay for Non-light-sensitive Complexes
(§3) The A2780 ovarian cell line was obtained from the ECACC (European Collection of Animal Cell Culture, Salisbury, United Kingdom). The cells were maintained in RPMI 1640 media, which was supplemented with 10% foetal calf serum, 1% L-glutamine, and 1% penicillin/streptomycin. All cells were grown at 310 K in an humidified atmosphere containing 5% CO2. Stock solutions of the Pt complexes were freshly prepared in DMSO to assist dissolution and then diluted into saline and medium (maximum final concentration of DMSO 1% and saline 6%). After plating 5000 A2780 cells per well on day 1, Pt complexes were added to the cancer cells on day 3 at concentrations ranging from 0.01 to 100 µM, depending on the preliminary activity data obtained in screening assays. Cells were exposed to the complexes for 24 h, washed with PBS, supplied with fresh medium, and allowed to grow for three doubling times (72 h), and then the protein content (proportional to cell survival) was measured using the sulforhodamine B (SRB) assay.[7] The standard errors are based on two independent experiments of three replicates each.[8]

A2780cis cells = experiment: SRB proliferation assay for non-light-sensitive complexes, A2780cis; format: cell-based, human; conditions: for Resistance factor: A2780cis vs A2780, SRB assay; for IC50: ambient light, 24 h exposure, 72 h recovery, SRB
Experimental: as §1, §2, §3

calf thymus DNA = experiment: Characterisation of DNA adducts with thiourea; format: binding; conditions: in the dark; for Total adducts displaced from DNA by thiourea after 24 h: 10 mM thiourea; for Bifunctional adducts after 24 h: thiourea probe
Experimental: Characterisation of DNA adducts: The experiments aimed at the characterisation of DNA adducts of photoactivated 1 or 2, and of 5 or 6 in the dark were conducted employing thiourea as a probe of DNA monofunctional adducts of trans-platinum(II) compounds[24] (for details, see the Supporting Information). After 24 h, 55(±10), 48(±2), 66(±1) and 64(±3) % of the total adducts of platinum complexes 1, 2, 5 and 6, respectively, were displaced from DNA by thiourea (Figure 10). Thus, only 45, 52, 34 and 36 % of DNA adducts formed by 1 or 2 (photoactivated) and 5 or 6 (in the dark), respectively, had evolved to bifunctional lesions after this time interval.
Figure 10 Quantification of DNA adducts by thiourea. Dependence of rb on incubation time for calf thymus DNA modified by photoactivated: A) 1, or B) 2 (420 nm light); and in the dark with: C) 5, or D) 6. Reactions were stopped with thiourea (10 mM; 10 min, 310 K; ▴) or without thiourea (▪), and the platinum associated with DNA was assessed. […]
assayed by differential pulse polarography for free, unbound platinum.[16] The amount of platinum bound to DNA was calculated by subtracting the amount of free (unbound) platinum from the total amount of platinum present in the reaction.
Transcription mapping of DNA adducts in vitro
The 212-bp DNA fragment used was yielded from cutting of pSP73KB DNA by NdeI and HpaI restriction endonucleases (a substantial part of the nucleotide sequence is […]
This fragment contained T7 RNA polymerase promoter (in the upper strand close to its 3'-end). This linear DNA fragment was randomly modified by transplatin (8), cisplatin (7), 5 and 6 in the dark and by 1 and 2 photoactivated with 420 nm light at rb = 0.01, for RNA synthesis by T7 RNA polymerase. The fragments produced in RNA synthesis on the template modified by the platinum complexes were analysed by a 6% polyacrylamide/8M urea sequencing gel.
Quantification of DNA adducts
Double-helical calf thymus DNA at a concentration of 32 µg/mL was incubated with 5 or 6 in the dark, or alternatively, DNA mixed with 1 or 2 was irradiated for 30min (λirrad = 420 nm) and then incubated in the dark in 10 mM NaClO4 at 310 K. At various time intervals the aliquots were withdrawn and the platination reaction was stopped by addition of 10 mM thiourea, samples were incubated for 10 min at […] and then quickly cooled to 253 K. In parallel experiments, 100 mM NaCl was added to the samples instead of thiourea and samples were immediately cooled to 253 K.
Platinum associated with DNA was assessed by flameless atomic absorption […]
Quantification of DNA interstrand cross-links […]

HMGB1 protein = target: T1, HMGB1 protein (Homo sapiens, UniProt P09429); experiment: HMGB1 recognition of platinated 50 bp duplex, gel mobility shift assay; format: binding; conditions: 50 bp duplex modified in the dark
T1 sequence (P09429 1-215): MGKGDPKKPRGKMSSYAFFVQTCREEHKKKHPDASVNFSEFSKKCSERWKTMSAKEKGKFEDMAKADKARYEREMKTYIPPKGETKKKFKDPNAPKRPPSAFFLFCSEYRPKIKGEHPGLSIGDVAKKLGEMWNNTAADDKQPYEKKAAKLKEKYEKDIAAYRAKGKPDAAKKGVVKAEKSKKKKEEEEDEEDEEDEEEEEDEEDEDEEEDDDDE
Excerpt: HMGB1 protein recognition: The interactions of high mobility group protein B1 (HMGB1) with a 50 bp duplex DNA adducts formed by 1 or 2 under irradiation conditions and 5 or 6 in the dark were investigated using a gel mobility shift assay.
Figure 13 Recognition by HMGB1 protein of platinated DNA. Affinity of full-length HMGB1 to non-modified (control) DNA (lanes 1 and 2) or DNA modified by cisplatin (7) in the dark (lanes 3 and 4), 5 in the dark (lanes 5 and 6), 6 in the dark (lanes 7 and 8), photoactivated 1 (420 nm light, lanes 9 and 10) or photoactivated 2 (420 nm light, lanes 11 and 12). Lanes 1, 3, 5, 7, 9, 11, no protein added; lanes 2, 4, 6, 8, 10, 12, 700 ng HMGB1 added.

SMILES | IC50 (A2780 cells) | Resistance factor (A2780cis cells) | IC50 (A2780cis cells) | Total adducts displaced from DNA by thiourea after 24 h (calf thymus DNA) | Bifunctional adducts after 24 h (calf thymus DNA) | HMGB1 protein recognition (HMGB1 protein)
C[NH2+][Pt@SP3-2]([Cl])([Cl])[n+]1ccccc1 [Complex 5, trans-[PtCl2(MA)(Py)]] | 2.4 ± 0.7 µM | 1.25 | 3 ± 0.7 µM | 66(±1) % | 34% and 34±1% | no detectable binding and no
C[NH2+][Pt@SP3-2]([Cl])([Cl])[n+]1ccsc1 [Complex 6, trans-[PtCl2(MA)(Tz)]] | 6.9 ± 2.3 µM | 1.0 | 6.8 ± 0.9 µM | 64(±3) % | 36% and 36±2% | no detectable binding and no
